Assay results as given in patent US20260297080A1, “BICYCLIC COMPOUNDS AS CDK INHIBITORS” (BeOne Medicines I GmbH, priority 2022, published 2026).

Key:
CDK1/Cyclin B1 = CDK1/Cyclin B1 (Homo sapiens, UniProt P06493); test: CDK1/Cyclin B1 Biochemical Assay (TR-FRET), 0.015 mM ATP; details: 0.15 μM Rb (Ser780)-biotin substrate, pH7.0, 60 min preincubation, 120 min reaction, room temperature
Summary of the method: (§1)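 TR-FRET readout: 665/620 nm ratio from Eu-cryptate anti-pRb(Ser780) antibody plus streptavidin-XL665, converted to % inhibition and fitted (4-parameter logistic) for IC50. Reactions used 0.15 μM biotinylated Rb (Ser780) substrate, compound 0–10 μM, 60 min enzyme–compound preincubation, then 120 min reaction at room temperature.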

CDK2/Cyclin E1 = CDK2/Cyclin E1 (Homo sapiens, UniProt P24941); test: CDK2/Cyclin E1 Biochemical Assay (TR-FRET), 0.060 mM ATP; details: 0.15 μM Rb (Ser780)-biotin substrate, pH7.0, 60 min preincubation, 120 min reaction, room temperature
Summary of the method: as §1

Sequence of CDK1/Cyclin B1 (P06493 whole entry): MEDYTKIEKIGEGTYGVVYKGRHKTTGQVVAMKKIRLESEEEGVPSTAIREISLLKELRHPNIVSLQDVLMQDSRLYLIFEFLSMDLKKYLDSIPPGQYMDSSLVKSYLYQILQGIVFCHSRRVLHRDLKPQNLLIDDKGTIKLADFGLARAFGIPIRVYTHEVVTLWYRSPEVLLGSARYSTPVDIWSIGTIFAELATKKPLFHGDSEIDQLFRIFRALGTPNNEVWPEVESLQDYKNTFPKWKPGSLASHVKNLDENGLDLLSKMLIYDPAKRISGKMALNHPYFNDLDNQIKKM
Sequence of CDK1/Cyclin B1 (P14635 whole entry partner): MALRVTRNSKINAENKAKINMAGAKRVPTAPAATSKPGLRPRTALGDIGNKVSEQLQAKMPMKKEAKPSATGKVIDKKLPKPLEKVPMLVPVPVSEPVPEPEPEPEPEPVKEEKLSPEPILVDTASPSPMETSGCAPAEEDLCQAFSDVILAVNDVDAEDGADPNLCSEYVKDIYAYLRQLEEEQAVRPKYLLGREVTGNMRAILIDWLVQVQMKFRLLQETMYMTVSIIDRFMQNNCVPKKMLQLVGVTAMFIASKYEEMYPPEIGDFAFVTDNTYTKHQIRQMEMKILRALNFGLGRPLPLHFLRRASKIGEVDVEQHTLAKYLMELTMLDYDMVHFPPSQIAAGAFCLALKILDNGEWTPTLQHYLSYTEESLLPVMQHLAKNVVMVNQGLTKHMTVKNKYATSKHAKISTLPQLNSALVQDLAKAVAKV

SMILES	IC50 (CDK1/Cyclin B1) [nM]	IC50 (CDK2/Cyclin E1) [nM]
CC1(NC(=O)O[C@H]2CC[C@@H](c3cc(Nc4ccc5c(c4F)CNS5(=O)=O)n[nH]3)C2)CCOC1 (single isomer, unassigned) [Example 162a, cis-3-(3-((4-fluoro-1,1-dioxido-2,3-dihydrobenzo[d]isothiazol-5-yl)amino)-1H-pyrazol-5-yl)cyclopentyl(3-methyltetrahydrofuran-3-yl)carbamate]	456	3.4
CC1(NC(=O)O[C@H]2CC[C@@H](c3cc(Nc4ccc5c(c4F)CNS5(=O)=O)n[nH]3)C2)CCOC1 (single isomer, unassigned) [Example 162b, cis-3-(3-((4-fluoro-1,1-dioxido-2,3-dihydrobenzo[d]isothiazol-5-yl)amino)-1H-pyrazol-5-yl)cyclopentyl(3-methyltetrahydrofuran-3-yl)carbamate]	186	1.1
CC1(NC(=O)O[C@H]2CC[C@@H](c3cc(Nc4ccc5c(c4F)CNS5(=O)=O)n[nH]3)C2)CCOC1 (single isomer, unassigned) [Example 162c, cis-3-(3-((4-fluoro-1,1-dioxido-2,3-dihydrobenzo[d]isothiazol-5-yl)amino)-1H-pyrazol-5-yl)cyclopentyl(3-methyltetrahydrofuran-3-yl)carbamate]	408	3.1
CC1(NC(=O)O[C@H]2CC[C@@H](c3cc(Nc4ccc5c(c4F)CNS5(=O)=O)n[nH]3)C2)CCOC1 (single isomer, unassigned) [Example 162d, cis-3-(3-((4-fluoro-1,1-dioxido-2,3-dihydrobenzo[d]isothiazol-5-yl)amino)-1H-pyrazol-5-yl)cyclopentyl(3-methyltetrahydrofuran-3-yl)carbamate]	158	3.7
CC1(NC(=O)O[C@H]2CC[C@@H](c3cc(Nc4ccc5c(c4F)CNS5(=O)=O)n[nH]3)C2)COC1 (single isomer, unassigned) [Example 164a, cis-3-(3-((4-fluoro-1,1-dioxido-2,3-dihydrobenzo[d]isothiazol-5-yl)amino)-1H-pyrazol-5-yl)cyclopentyl(3-methyloxetan-3-yl)carbamate]	364	4.3
CC1(NC(=O)O[C@H]2CC[C@@H](c3cc(Nc4ccc5c(c4F)CNS5(=O)=O)n[nH]3)C2)COC1 (single isomer, unassigned) [Example 164b, cis-3-(3-((4-fluoro-1,1-dioxido-2,3-dihydrobenzo[d]isothiazol-5-yl)amino)-1H-pyrazol-5-yl)cyclopentyl(3-methyloxetan-3-yl)carbamate]	189	8.4
CN1Cc2c(ccc(Nc3cc([C@@H]4CC[C@H](OC(=O)NC5CCC(O)CC5)C4)[nH]n3)c2F)S1(=O)=O (single isomer, unassigned) [Example 166, cis-3-(3-((4-fluoro-2-methyl-1,1-dioxido-2,3-dihydrobenzo[d]isothiazol-5-yl)amino)-1H-pyrazol-5-yl)cyclopentyl(4-hydroxycyclohexyl)carbamate]	74	2.9
CN1Cc2c(ccc(Nc3cc([C@@H]4CC[C@H](OC(=O)NC5CCC(O)CC5)C4)[nH]n3)c2F)S1(=O)=O (single isomer, unassigned) [Example 167, cis-3-(3-((4-fluoro-2-methyl-1,1-dioxido-2,3-dihydrobenzo[d]isothiazol-5-yl)amino)-1H-pyrazol-5-yl)cyclopentyl(4-hydroxycyclohexyl)carbamate]	514	9.2
CC(C)NC(=O)O[C@H]1CC[C@@H](c2cc(Nc3ccc4c(c3F)S(=O)(=O)NC4)n[nH]2)C1 (single isomer, unassigned) [Example 186a, cis-3-(3-((7-fluoro-1,1-dioxido-2,3-dihydrobenzo[d]isothiazol-6-yl)amino)-1H-pyrazol-5-yl)cyclopentyl isopropylcarbamate]	255	4.8
CCCNC(=O)O[C@H]1CC[C@@H](c2cc(Nc3ccc4c(c3F)S(=O)(=O)NC4)n[nH]2)C1 (single isomer, unassigned) [Example 189a, cis-3-(3-((7-fluoro-1,1-dioxido-2,3-dihydrobenzo[d]isothiazol-6-yl)amino)-1H-pyrazol-5-yl)cyclopentyl propylcarbamate]	350	10
CCCNC(=O)O[C@H]1CC[C@@H](c2cc(Nc3ccc4c(c3)CS(=O)(=O)N4)n[nH]2)C1 (single isomer, unassigned) [Example 195a, cis-3-(3-((2,2-dioxido-1,3-dihydrobenzo[c]isothiazol-5-yl)amino)-1H-pyrazol-5-yl)cyclopentyl propylcarbamate]	73	12
CC(C)NC(=O)O[C@H]1CC[C@@H](c2cc(Nc3ccc4c(c3)CS(=O)(=O)N4CCO)n[nH]2)C1 (single isomer, unassigned) [Example 219a, cis-3-(3-((1-(2-hydroxyethyl)-2,2-dioxido-1,3-dihydrobenzo[c]isothiazol-5-yl)amino)-1H-pyrazol-5-yl)cyclopentyl isopropylcarbamate]	46	5.4
CC(C)NC(=O)O[C@@H]1CC[C@H](c2cc(Nc3ccc4c(c3)CS(=O)(=O)N4C)n[nH]2)C1 (single isomer, unassigned) [Example 220a]	56	2.6
CN1c2ccc(Nc3cc([C@@H]4CC[C@H](OC(=O)NC5CCC5)C4)[nH]n3)cc2CS1(=O)=O (single isomer, unassigned) [Example 227a, cis-3-(3-((1-methyl-2,2-dioxido-1,3-dihydrobenzo[c]isothiazol-5-yl)amino)-1H-pyrazol-5-yl)cyclopentyl cyclobutylcarbamate]	156	3.5
CC(C)NC(=O)O[C@H]1CC[C@@H](c2cc(Nc3ccc4c(c3)CCS(=O)(=O)N4)n[nH]2)C1 (single isomer, unassigned) [Example 246a, cis-3-(3-((2,2-dioxido-3,4-dihydro-1H-benzo[c][1,2]thiazin-6-yl)amino)-1H-pyrazol-5-yl)cyclopentyl isopropylcarbamate]	201	3.4
CC(C)NC(=O)O[C@H]1CC[C@@H](c2cc(Nc3ccc4c(c3)CCS(=O)(=O)N4)n[nH]2)C1 (single isomer, unassigned) [Example 246b, cis-3-(3-((2,2-dioxido-3,4-dihydro-1H-benzo[c][1,2]thiazin-6-yl)amino)-1H-pyrazol-5-yl)cyclopentyl isopropylcarbamate]	68	2.3
CC(C)NC(=O)O[C@@H]1CC[C@H](c2cc(Nc3ccc4c(c3F)CS(=O)(=O)N4)n[nH]2)C1 (single isomer, unassigned) [Example 251a]	74	1.1

Further molecules by falling IC50 (CDK1/Cyclin B1), results first:

IC50 (CDK1/Cyclin B1) [nM]	IC50 (CDK2/Cyclin E1) [nM]	SMILES
45	1.3	CN1c2ccc(Nc3cc([C@@H]4CC[C@H](OC(=O)NC5CCC5)C4)[nH]n3)cc2CS1(=O)=O (single isomer, unassigned) [Example 227b, cis-3-(3-((1-methyl-2,2-dioxido-1,3-dihydrobenzo[c]isothiazol-5-yl)amino)-1H-pyrazol-5-yl)cyclopentyl cyclobutylcarbamate]
44	1.7	CC(C)NC(=O)O[C@H]1CC[C@@H](c2cc(Nc3ccc4c(c3F)S(=O)(=O)NC4)n[nH]2)C1 (single isomer, unassigned) [Example 186b, cis-3-(3-((7-fluoro-1,1-dioxido-2,3-dihydrobenzo[d]isothiazol-6-yl)amino)-1H-pyrazol-5-yl)cyclopentyl isopropylcarbamate]
41	2.7	CCCNC(=O)O[C@H]1CC[C@@H](c2cc(Nc3ccc4c(c3F)S(=O)(=O)NC4)n[nH]2)C1 (single isomer, unassigned) [Example 189b, cis-3-(3-((7-fluoro-1,1-dioxido-2,3-dihydrobenzo[d]isothiazol-6-yl)amino)-1H-pyrazol-5-yl)cyclopentyl propylcarbamate]
35	2.6	CC(C)NC(=O)O[C@H]1CC[C@@H](c2cc(Nc3ccc4c(c3)CS(=O)(=O)N4C)n[nH]2)C1 (single isomer, unassigned) [Example 220b]
31	1.1	CC1(NC(=O)O[C@H]2CC[C@@H](c3cc(Nc4ccc5c(c4)CCS(=O)(=O)N5)n[nH]3)C2)CC1 (single isomer, unassigned) [Example 249a, cis-3-(3-((2,2-dioxido-3,4-dihydro-1H-benzo[c][1,2]thiazin-6-yl)amino)-1H-pyrazol-5-yl)cyclopentyl(1-methylcyclopropyl)carbamate]
31	1	CC(C)NC(=O)O[C@H]1CC[C@@H](c2cc(Nc3ccc4c(c3F)CS(=O)(=O)N4)n[nH]2)C1 (single isomer, unassigned) [Example 251b]
28	3.6	CC(C)NC(=O)O[C@H]1CC[C@@H](c2cc(Nc3ccc4c(c3)CS(=O)(=O)N4CCO)n[nH]2)C1 (single isomer, unassigned) [Example 219b, cis-3-(3-((1-(2-hydroxyethyl)-2,2-dioxido-1,3-dihydrobenzo[c]isothiazol-5-yl)amino)-1H-pyrazol-5-yl)cyclopentyl isopropylcarbamate]
12	0.6	CC1(NC(=O)O[C@H]2CC[C@@H](c3cc(Nc4ccc5c(c4)CCS(=O)(=O)N5)n[nH]3)C2)CC1 (single isomer, unassigned) [Example 249b, cis-3-(3-((2,2-dioxido-3,4-dihydro-1H-benzo[c][1,2]thiazin-6-yl)amino)-1H-pyrazol-5-yl)cyclopentyl(1-methylcyclopropyl)carbamate]
